System: 422866-222-R5-J1-PDC complex spheroids viability
Experiment: Anticancer human tumor 422866-222-R5-J1-PDC patient-derived pancreatic adenocarcinoma cell line growth inhibition [RAS]
Details: for IC50: curve of first compound; for viability, T/C: stronger effect = lower value
Method in brief: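 Agents were tested in combination matrices in half-log decrements from a top concentration at or near clinical Cmax (10 microM if undetermined). Targets were multi-cell spheroids of tumour lines plus HUVEC and MSC stromal cells.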
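Also: spheroids exposed to compounds for 7 days.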
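For viability, T/C in this document: 100% = DMSO vehicle control viability.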

NC1c2ccccc2OC12CCN(c1cnc3c(N4CCCc5ncccc54)n[nH]c3n1)CC2 (configuration not stated) + C#Cc1c(F)ccc2cc(O)cc(-c3ncc4c(N5CC6CCC(C5)N6)nc(OCC56CCCN5CC(F)C6)nc4c3F)c12 was tested, and the IC50 (second compound 0.0316 µM) was 55.8 nM, the IC50 (second compound 0.1 µM) was < 31.6 nM and the IC50 (second compound 0.316 µM) was < 31.6 nM. For the same compound, the IC50 (second compound 1 µM) was < 31.6 nM, the IC50 (second compound 3.16 µM) was < 31.6 nM and the IC50 (second compound 10 µM) was < 31.6 nM. The viability, T/C (second compound 0.0316 µM, first compound 0.0316 µM) was 53%, the viability, T/C (second compound 0.0316 µM, first compound 0.1 µM) was 49.2% and the viability, T/C (second compound 0.0316 µM, first compound 0.316 µM) was 34.8%. It also gave a viability, T/C (second compound 0.0316 µM, first compound 1 µM) of 38.4%, a viability, T/C (second compound 0.0316 µM, first compound 3.16 µM) of 29.5% and a viability, T/C (second compound 0.0316 µM, first compound 10 µM) of 23.6%. It also gave a viability, T/C (second compound 0.1 µM, first compound 0.0316 µM) of 44%, a viability, T/C (second compound 0.1 µM, first compound 0.1 µM) of 43.3% and a viability, T/C (second compound 0.1 µM, first compound 0.316 µM) of 32.8%. For the same compound, the viability, T/C (second compound 0.1 µM, first compound 1 µM) was 28.7%, the viability, T/C (second compound 0.1 µM, first compound 3.16 µM) was 27.7% and the viability, T/C (second compound 0.1 µM, first compound 10 µM) was 25.5%. The viability, T/C (second compound 0.316 µM, first compound 0.0316 µM) was 38.1%, the viability, T/C (second compound 0.316 µM, first compound 0.1 µM) was 36.2% and the viability, T/C (second compound 0.316 µM, first compound 0.316 µM) was 24.1%. The viability, T/C (second compound 0.316 µM, first compound 1 µM) was 26.4%, the viability, T/C (second compound 0.316 µM, first compound 3.16 µM) was 24.2% and the viability, T/C (second compound 0.316 µM, first compound 10 µM) was 19.7%. The viability, T/C (second compound 1 µM, first compound 0.0316 µM) was 27.1%, the viability, T/C (second compound 1 µM, first compound 0.1 µM) was 23.9% and the viability, T/C (second compound 1 µM, first compound 0.316 µM) was 25.2%. It also gave a viability, T/C (second compound 1 µM, first compound 1 µM) of 17%, a viability, T/C (second compound 1 µM, first compound 3.16 µM) of 19.6% and a viability, T/C (second compound 1 µM, first compound 10 µM) of 15%. It also gave a viability, T/C (second compound 3.16 µM, first compound 0.0316 µM) of 17.8%, a viability, T/C (second compound 3.16 µM, first compound 0.1 µM) of 19.8% and a viability, T/C (second compound 3.16 µM, first compound 0.316 µM) of 16.1%. The viability, T/C (second compound 3.16 µM, first compound 1 µM) was 17.4%, the viability, T/C (second compound 3.16 µM, first compound 3.16 µM) was 17.5% and the viability, T/C (second compound 3.16 µM, first compound 10 µM) was 14.9%. For the same compound, the viability, T/C (second compound 10 µM, first compound 0.0316 µM) was 15.7%, the viability, T/C (second compound 10 µM, first compound 0.1 µM) was 16.5% and the viability, T/C (second compound 10 µM, first compound 0.316 µM) was 14.3%. For the same compound, the viability, T/C (second compound 10 µM, first compound 1 µM) was 16.2%, the viability, T/C (second compound 10 µM, first compound 3.16 µM) was 15.6% and the viability, T/C (second compound 10 µM, first compound 10 µM) was 16.1%.

Reference: PubChem BioAssay AID2060901 (Molecular Pharmacology Branch, DTP, NCI, 2025)
